The record followed here is EP0636624A1, “Thiazole derivatives as lipoxygenase inhibitors” (ZENECA LIMITED, priority 1993, dated 1995).

One series relates to hepatic enzymes. The series is described as follows: Auto-induction on repeated dosing (fall in C max / AUC). The series is classed as in vivo. The following applies: repeated dosing to a warm-blooded animal. An excerpt: The result is a decrease on repeat dosing of the quantity of the compound present in the animal's blood stream as shown, for example, by a decrease in the maximum concentration achieved (C max) or, for example, a decrease in the exposure of the animal to the compound as measured by the area under the curve (AUC) of a plot of the concentration of the compound in the blood stream versus time after dosing.

The target in series [1] is T1, 5-LO (Homo sapiens, UniProt P09917).
T1 construct: incubating a test compound with heparinised human blood, prior to challenge with the calcium ionophore A23187; endogenous in cells; host or cells: blood cells of heparinised human whole blood
T1 sequence (P09917 1-674): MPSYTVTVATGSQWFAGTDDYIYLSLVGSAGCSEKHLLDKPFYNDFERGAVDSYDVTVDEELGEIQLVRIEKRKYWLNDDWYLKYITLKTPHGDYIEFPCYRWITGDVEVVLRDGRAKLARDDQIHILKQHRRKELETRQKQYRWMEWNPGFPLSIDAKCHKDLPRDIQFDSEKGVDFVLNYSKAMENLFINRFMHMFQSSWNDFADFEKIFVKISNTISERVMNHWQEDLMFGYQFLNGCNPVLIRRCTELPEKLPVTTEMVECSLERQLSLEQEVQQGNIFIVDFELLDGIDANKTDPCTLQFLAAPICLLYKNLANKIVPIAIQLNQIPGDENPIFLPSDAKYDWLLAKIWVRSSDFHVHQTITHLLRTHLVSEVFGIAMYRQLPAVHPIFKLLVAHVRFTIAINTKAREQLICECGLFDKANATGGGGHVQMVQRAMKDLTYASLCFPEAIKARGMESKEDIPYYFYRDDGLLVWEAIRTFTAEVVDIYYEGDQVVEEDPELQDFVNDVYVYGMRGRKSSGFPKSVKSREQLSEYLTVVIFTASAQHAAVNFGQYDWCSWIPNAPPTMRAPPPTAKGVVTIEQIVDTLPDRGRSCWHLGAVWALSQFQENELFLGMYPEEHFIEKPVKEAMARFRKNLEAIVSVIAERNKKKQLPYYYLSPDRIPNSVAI
The experiment in a line: Test a): in vitro heparinised human blood challenged with calcium ionophore A23187, LTB4 radioimmunoassay. The series is classed as cell-based. The following applies: heparinised human blood, A23187 challenge; read-out: IC₅₀ against LTB₄ in test a). From the text: As stated previously, the compounds of the formula I are inhibitors of the enzyme 5-LO. […] J. Pharmacol. 1985, 84, 34P) which involve the use of a protein-LTB₄ conjugate produced using the procedure of Young et alia (Prostaglandins, 1983, 26(4), 605-613). The effects of a test compound on the enzyme cyclooxygenase (which is involved in the alternative metabolic pathway for arachidonic acid and gives rise to prostaglandins, thromboxanes and related metabolites) may be measured at the same time using the specific radioimmunoassay for thromboxane B₂(TxB₂) described by Carey and Forder (see above). This test provides an indication of the effects of a test compound against 5-LO and also cyclooxygenase in the presence of blood cells and proteins. It permits the selectivity of the inhibitory effect on 5-LO or cyclooxygenase to be assessed. • b) An ex vivo assay system, which is a variation of test a) above, involving administration to a group of rats of a test compound (usually orally as the suspension produced when a solution of the test compound in dimethylsulphoxide is added to carboxymethylcellulose), blood collection, heparinisation, challenge with A23187 and radioimmunoassay of LTB₄ and TxB₂. […]

The subject of series [2] is 5-LO. The series is described as follows: Test c): in vivo zymosan-induced LTB4 liberation in rat subcutaneous air pouch. The following applies: oral, approximate value, 180 min. The arrangement: species or system male rats.

Each structure is given as a SMILES string.

Turning to `COC1(c2ccc(Sc3ccc4c(c3)CCC(=O)N4C)s2)CCOCC1` [4-methoxy-4-[5-(1-methyl-2-oxo-1,2,3,4-tetrahydroquinolin-6-ylthio)-thien-2-yl]tetrahydropyran], in the series with hepatic enzymes, the auto-induction entry is “possesses the undesirable property of auto-induction”.
For `CO[C@]1(c2cnc(Sc3ccc4c(c3)CCC(=O)N4C)s2)CCO[C@@H](C)C1` [Example 3, (2S,4R)-4-methoxy-2-methyl-4-[2-(1-methyl-2-oxo-1,2,3,4-tetrahydroquinolin-6-ylthio)thiazol-5-yl]tetrahydropyran], the IC50 at 5-LO [1] was found to be 60 nM. Besides, the “IC₅₀ against LTB₄ in test c)” value with 5-LO [2] is recorded as “approximately 0.2 mg/kg”.
